Here are results for one molecule from patent publication US10913773B2, “Bicyclic peptidyl inhibitor of tumor necrosis factor-alpha” (Ohio State Innovation Foundation, priority 2016, dated 2021).

In one series the target is T1, TNFα (Homo sapiens, UniProt P01375).
T1 construct: ybbR tag (13 aa) (N); made in house; host or cells: Escherichia coli
The series is described as follows: FA-based competition with FITC-labeled C1 for binding to TNFα. The settings on record: 2 μM TNFα, 100 nM C1-NNNK(FITC), 0-15 μM competitor. On the procedure:
(§1) FIG. 6A is a graph showing the competition for binding to TNFα (2 μM) between C1-74-2 (0-15 μM) and C1-NNNK(FITC) (100 nM) as monitored by FA. FIG. 6B is a graph showing binding of infliximab-HRP conjugate to immobilized TNFα in the absence and presence of C1-74-2 (0, 2, or 6 μM).
[formula] where Y is the measured anisotropy at a given TNFα concentration x; L is the bicyclic peptide concentration; Qb/Qf is the correction fact for dye-protein interaction; Amax is the maximum anisotropy when all the peptides are bound to TNFα, while Amin is the minimum anisotropy. Competition experiments were performed by incubating 100 nM Asn-Asn-Asn-Lys(FITC)-labeled anticachexin C1 (Table 1), 2 μM of TNFα, and varying concentrations of unlabeled competitor peptide (0-20 μM) in the above buffer for 2 h. The FA values were plotted against the competitor peptide concentration to determine the IC50 values.

Another series can be described thus: Serum stability test. It counts as in vitro ADME, human. The settings on record: human, diluted human serum (25%), supernatant after centrifugation; 8 h at 37° C.; read-out: Degradation in human serum. As to the method: Diluted human serum (25%) was centrifuged at 15,000 rpm for 10 min, and the supernatant was collected. A peptide stock solution was diluted into the supernatant to a final concentration of 5 μM and incubated at 37° C. At various time points (0-8 h), 200-μL aliquots were withdrawn and mixed with 50 μL of 15% trichloroacetic acid and 200 μL of acetonitrile. After incubation at 4° C. overnight, the mixture was centrifuged at 15,000 rpm for 10 min in a microcentrifuge, and the supernatant was analyzed by reversed-phase HPLC equipped with an analytical C18 column (Waters). The amount of remaining intact peptide (%, relative that of time zero control) was determined by integrating the area underneath the peptide peak (monitored at 214 nm).

The target of series [1] is T2, TNFα (infliximab binding) (Homo sapiens, UniProt P01375).
T2 construct: ybbR tag (13 aa) (N); made in house; host or cells: Escherichia coli
The series is described as follows: Binding of infliximab-HRP conjugate to immobilized TNFα. The note with it: 0, 2 or 6 μM peptide. On the procedure: as §1
The four peptides were tested for inhibition of the TNFα-TNFR1 interaction by using the ELISA assay.

Series [2] deals with murine TNFα-induced cell death in WEHI-13VAR fibroblasts. The series is described as follows: MTT assay: protection of WEHI-13VAR fibroblasts against murine TNFα-induced cell death. The settings on record: murine TNFα with 10 μM peptide; no inhibitor 10 ng/mL. Type of series: cell-based. As to the method: WEHI-13VAR fibroblasts were purchased from American Type Culture Collection (ATCC). For maintenance, cells were grown in full medium as RPMI-1640 supplemented with 10% FBS and 1% Abs. For toxicity assay, cells were seeded in a 96-well plate at a density of 5×10^3 cells/well in 100 μL of RPMI-1640/1% Abs supplemented with 10% or 5% FBS and allowed to grow overnight. Varying concentrations of recombinant human TNFα (0-250 ng/mL) or commercial mouse TNFα were (0-100 pg/mL) were incubated with 10 μM peptide and actinomycin D (1 μg/mL) in 100 μL of corresponding growth medium for 1 h at 37° C. Next, the medium in the 96-well plate was removed and replaced with the above fresh mixture and the cells were incubated overnight. Next day, 10 μL of the 3-(4, 5-dimethylthiazolyl-2)-2, 5-diphenyltetrazolium bromide (MTT, final concentration 0.5 mg/ml) was added to each well and incubated at 37° C. for 3 h, following by the addition of 100 μL of the MTT solubilization solution. The plate was kept in the incubator overnight to let the formazan crystals to completely dissolve, and the absorbance at 570 nm was measured on a TECAN plate reader. The LD50 was obtained as plotting the viability as a function of the TNFα concentration.
TNFα inhibitor C1-74-2 was tested for its inhibitory activity against murine TNFα, a necessary step before testing C1-74-2 in a mouse model of inflammatory bowel disease.

Series [3] concerns TNFα-induced activation of NF-κB. The series is described as follows: NF-κB luciferase reporter assay in NF-κB reporter (Luc)-HEK293 cells. Type of series: cell-based. The settings on record: 6 μM peptide, 5 ng/mL TNFα. On the procedure: NF-κB reporter (Luc)-HEK293 cells 30 (BPS Bioscience, San Diego, Calif.) were seeded at a density of 5,000 cells per well in Greiner white 96-well cell culture microplates in 50 μL of growth medium (DMEM+10% FBS+1% P/S). Cells were incubated overnight at 37° C. in the presence of 5% CO2. TNFα (5 ng/mL) and different concentrations of compound C1-74-2 (0-6 μM) were incubated for 1 h in 5 μL of growth medium (DMEM+5% FBS+1% P/S) at 37° C. in the presence of 5% CO2. The growth medium in the plate was replaced with 50 μL of fresh medium (DMEM+5% FBS+1% P/S). The pre-incubated TNFα and peptide mixture (5 μL) was added into each well, with 5 μL of growth medium only added as the control. The cells were incubated at 37° C. with 5% CO2 for 2 h. Fifty μL of ONE-Step™ Luciferase Assay reagent (BPS Bioscience, San Diego, Calif.) was added into each well. The whole plate was incubated at room temperature for 5 min and the luminescence generated was measured on a Tecan M1000 Pro microplate reader.
WEHI-13VAR cells were treated with TNFα in the presence of increasing concentrations of C1-74-2 (0-20 μM) and the cell lysates were probed with antibodies specific for phosphorylated JNK (p-JNK) as well as total JNK. […]

T1 sequence (P01375 77-233 limits assumed): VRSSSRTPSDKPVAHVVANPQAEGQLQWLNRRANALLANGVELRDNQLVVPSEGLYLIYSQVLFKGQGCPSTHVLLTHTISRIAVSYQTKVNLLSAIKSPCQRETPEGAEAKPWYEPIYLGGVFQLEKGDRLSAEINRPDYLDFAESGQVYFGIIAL
T2 sequence (P01375 77-233 limits assumed): as above

On to `CC(=O)[C@@H]1CCCN(C(=O)[C@@H](Cc2c[nH]cn2)NC(=O)C(N)C(C)C)C1` (some centres unmarked) [Compound C1-74-2], for which the “Competition with FITC-labeled C1 for binding to TNFα” value on TNFα is given as “competed with FITC-labeled C1 for binding to TNFα”. The metabolised at 8 h, 5 μM in the series “Serum stability test” is about 15%. For the same molecule, the “Inhibition of infliximab binding to surface-immobilized TNFα” value in series [1] was “inhibited the binding of anti-TNFα antibody infliximab to a surface-immobilized TNFα in a concentration-dependent manner”. Also, the “LD50 value of TNFα” value in series [2] was 31 ng/mL. The “Reduction of TNFα-induced luciferase activity” value in series [3] was about 50%.
